# Experimental data reported in PMC7821181, “MS Binding Assays for Glycine Transporter 2 (GlyT2) Employing Org25543 as Reporter Ligand” (Chemmedchem, 2020).
# Several values for one entry are separate records, joined by “and”; a condition that tells them apart may be missing. Equal values may be shown once. Entries after “also recorded” stand apart in the source; their conditions may differ. Read-outs that look alike come from different tables or passages of the source.
# How the values were obtained:
# hGlyT2 = target: T1, hGlyT2 (Homo sapiens, UniProt Q9Y345); experiment: GlyT2 MS Binding Assays: competition experiments with Org25543 as reporter ligand; settings: for completeness of displacement of Org25543 from GlyT2, in words: up to the highest concentration investigated (glycine 1 M); for affinity / inhibition of Org25543 binding, in words: up to highest concentration (sarcosine, L-serine, DL-leucine mM; Org24598 300 μM; LY2365109 10 μM; ALX5407 600 μM)
# T1 construct: host or cells: HEK293 cells stably expressing hGlyT2; crude membrane fractions
# T1 sequence (Q9Y345 1-797): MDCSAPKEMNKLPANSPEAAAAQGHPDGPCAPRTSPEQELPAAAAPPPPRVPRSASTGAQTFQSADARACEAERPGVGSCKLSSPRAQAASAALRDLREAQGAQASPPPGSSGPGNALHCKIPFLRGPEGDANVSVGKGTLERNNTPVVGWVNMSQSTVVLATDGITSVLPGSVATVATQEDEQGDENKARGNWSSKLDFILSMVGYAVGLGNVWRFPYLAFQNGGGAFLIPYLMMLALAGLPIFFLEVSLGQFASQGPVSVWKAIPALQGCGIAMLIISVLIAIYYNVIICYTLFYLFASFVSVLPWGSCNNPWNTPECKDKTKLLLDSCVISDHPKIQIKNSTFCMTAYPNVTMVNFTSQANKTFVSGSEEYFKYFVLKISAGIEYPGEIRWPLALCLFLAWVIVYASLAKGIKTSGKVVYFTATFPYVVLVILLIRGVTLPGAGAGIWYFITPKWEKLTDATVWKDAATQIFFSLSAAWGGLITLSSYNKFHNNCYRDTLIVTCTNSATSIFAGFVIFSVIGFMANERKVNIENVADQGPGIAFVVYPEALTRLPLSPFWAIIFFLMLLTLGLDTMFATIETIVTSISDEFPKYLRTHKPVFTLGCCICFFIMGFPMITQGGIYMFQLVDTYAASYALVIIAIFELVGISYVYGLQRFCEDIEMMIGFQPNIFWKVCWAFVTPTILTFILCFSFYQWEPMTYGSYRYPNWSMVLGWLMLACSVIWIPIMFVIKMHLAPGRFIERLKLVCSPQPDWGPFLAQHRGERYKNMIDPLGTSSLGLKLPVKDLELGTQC
# Protocol: For the development of the desired competitive MS Binding Assay, the general concept of this kind of binding experiments was followed, in which the affinity of a test compound is delineated from its potency to compete out a reporter ligand, in our case Org25543, from its target binding site. Accordingly, the target protein was incubated with a defined concentration of the reporter ligand and increasing concentration of the individual test compound. In detail, the competitors were studied at seven different concentration levels, which covered about three concentration log units, whereas the concentration of Org25543 was fixed to 10 nM. Thereafter, via the developed LC‐ESI‐MS/MS method the amount of bound marker (total binding) was determined for the samples obtained from the individual incubation mixtures by the common workup for MS Binding Assays. Nonspecific binding was again determined in a set of analogous experiments in which GlyT2 membrane fractions were replaced by material subjected to a heat‐shock before. The resulting amount of Org25543 binding was defined as 0 % level of specific reporter ligand binding. […] The thus determined IC50 values were finally used to calculate the corresponding K i values by means of the Cheng‐Prusoff equation.
# For preparation of GlyT2 membrane preparations HEK293 cells, stably expressing the hGlyT2 with a confluence ≥90 %, were used (kindly provided by AbbVie (Wiesbaden, Germany)). As cell culture medium DMEM containing 10 % fetal bovine serum (m/v), 100 U mL^−1 penicillin, 100 μg mL^−1 streptomycin and […] hygromycin B was used and the cells were cultivated in dishes (143 cm^2) at 37 °C and 8 % CO2. The cells were detached from the dish by aspirating the medium, adding 12 mL cell culture medium without hygromycin B and pipetting the medium several times until the cell lawn was completely detached. Subsequently, the cells were washed twice with PBS (5 min, 1600 rpm, Biofuge Stratos, rotor: #3047, Heraeus, Hanau, Germany) and afterwards homogenized in incubation buffer (10 mM HEPES, 120 mM NaCl, 2 mM KCl, 1 mM MgCl2, 1 mM CaCl2, pH 7.5) using a Polytron PTA 10 S (Kinematica Polytron, Littau‐Luzern, Switzerland). After homogenization aliquots of about 1 mg protein were frozen and stored at −80 °C. To determine the amount of protein in the membrane preparation (after treatment with 100 mM NaOH for 1 h) the protein determination according to Bradford ^[63] was applied, using bovine serum albumin as standard for calibration. At the day of the assay the membrane preparation was rapidly thawed, diluted in 20 mL incubation buffer and centrifuged at 4 °C for 20 min at 20 500 rpm (Sorvall Evolution RC, rotor: SS34, Thermo. Electron, Hanau, Germany). Finally, the resulting pellet was resuspended in 6 mL incubation buffer yielding a protein concentration of ∼0.1–0.2 mg mL^−1.
# In polypropylene 96‐well plates (1.2 mL well volume, Sarstedt) membrane preparations (∼5–10 μg protein) were incubated in the presence of the reporter ligand and, if required, test compounds in incubation buffer (10 mM HEPES, 120 mM NaCl, 2 mM KCl, 1 mM MgCl2, 1 mM CaCl2, pH 7.5) in a total volume of 250 μL at 37 °C in a Julabo SW‐20 C water bath (Julabo GmbH, Seelbach, Germany) for 1 h (every sample was prepared in triplicates). After the incubation 210 μL aliquots of the binding samples were transferred by means of a 12‐channel pipette onto 96‐well glass fiber filter plates (AcroPrep Advance, glass fiber, 1.0 μm, 350 μL; Pall Corporation, Port Washington, NY, USA) where the incubation was terminated by vacuum filtration (the samples were transferred and the incubation was terminated row after row; Multi Well Plate Vacuum Manifold, Pall, Dreieich, Germany).
# [1] = ref 18; cited from earlier work
# GlyT2 [2] = settings: cited from earlier work; for pIC50 (literature; calcd): calcd from literature IC50; for IC50: read-out: Biological activity, IC50 (literature)
# GlyT2 [3] = settings: cited from earlier work
# [4] = read-out: Affinity, pKi (GlyT2 MS Binding Assays) (converted)
# [5] = compound 600 μM, Org25543 10 nM
smiles,measurement,setting,value
"CCCCCCCC/C=C\CCCCCCCC(=O)O[C@H](CC(=O)[O-])C[N+](C)(C)C [oleoyl‐L‐carnitine, Oleoyl‐L‐carnitine]",Ki,hGlyT2; [4],2.63 µM
same,critical micelle concentration (CMC),[1],7.4 µM
same,pIC50 (literature; calcd),GlyT2 [2]; ref 18,6.47
same,IC50,GlyT2 [2]; ref 18,0.34 µM
"CC(C)c1nnc(-c2ccc(-c3ccccc3)nc2)n1-c1cccc2nonc12 [ASP2535, 4‐[3‐(1‐methylethyl)‐5‐(6‐phenyl‐3‐pyridinyl)‐4H‐1,2,4‐triazol‐4‐yl]‐2,1,3‐benzoxadiazole]",Ki,hGlyT2; [4],1.02 µM
same,pIC50 (literature; calcd),GlyT2 [2]; ref 56,5.34
same,IC50,GlyT2 [2]; ref 56,4.6 ± 0.29 µM
NCC(=O)O [glycine],"Affinity, pKi (GlyT2 MS Binding Assays)","hGlyT2; Org25543 10 nM, 37 °C, 1 h, mean±SEM, n=3–5, bounds in brackets where less than 50 % inhibition",1.98±0.08
same,Ki,"hGlyT2; approximate value, read-out: Ki at GlyT2 in competition experiments",~10000 µM
same,"completeness of displacement of Org25543 from GlyT2, in words",hGlyT2,not able to displace Org25543 completely; also recorded: cannot completely displace Org25543
same,EC50,"GlyT2 [2]; K m and EC50 values, read-out: Biological activity (literature): K m and EC50 values",6 to 1800 µM
COc1cc(C(=O)NCC2(N(C)C)CCCCC2)cc(OC)c1OCc1ccccc1 [compound 8],Ki,hGlyT2; [4],0.0417 µM
same,IC50,"GlyT2 [3]; ref 23, read-out: IC50 in [3H]glycine uptake assay",0.084 µM
same,pIC50 (literature; calcd),GlyT2 [2]; ref 23,7.08
same,IC50,GlyT2 [2]; ref 23,0.084 ± 0.003 µM
O=C(O)C1CCCN1 (racemic) [DL‐proline],Ki,hGlyT2; [4],31600 µM
same,"completeness of displacement of Org25543 from GlyT2, in words",hGlyT2,not able to displace Org25543 completely
same,Glycine uptake in presence of 1 mM competitor (% of control),GlyT2 [2],"95±5 %^[47],[c]"
N[C@@H](CO)C(=O)O [L‐serine],remaining Org25543 binding (% of specific binding) at the highest compound concentration,"hGlyT2; compound 180 mM, Org25543 10 nM",97±4%
same,Ki,hGlyT2; [4],> 77600 µM
same,"affinity / inhibition of Org25543 binding, in words",hGlyT2,no inhibition of Org25543 binding to more than 50%
same,Glycine uptake in presence of 1 mM competitor (% of control),GlyT2 [2],"89±7 %^[47],[c]"
"CN(CC[C@@H](Oc1ccc(C(F)(F)F)cc1)c1ccccc1)CC(=O)O [Org24598, N‐methyl‐N‐[(3R)‐3‐phenyl‐3‐[4‐(trifluoromethyl)phenoxy]propyl]glycine]",remaining Org25543 binding (% of specific binding) at the highest compound concentration,"hGlyT2; compound 300 μM, Org25543 10 nM",101±5%
same,Ki,hGlyT2; [4],> 129 µM
same,"affinity / inhibition of Org25543 binding, in words",hGlyT2,hardly any affinity
same,pIC50 (literature; calcd),GlyT2 [2]; ref 53,<4
same,IC50,GlyT2 [2]; ref 53,> 100 µM
"CCCCCCCC/C=C\CCCCCCCC(=O)NCC(=O)O [N‐oleoylglycine, N‐(1‐oxo‐9‐octadecenyl)‐(Z)‐glycine]",Ki,hGlyT2; [4],2.34 µM
same,"completeness of displacement of Org25543 from GlyT2, in words",hGlyT2,not able to displace Org25543 completely
same,pIC50 (literature; calcd),GlyT2 [2]; ref 19,6.30
same,IC50,GlyT2 [2]; ref 19,0.5 µM
CNCC(=O)O [sarcosine],remaining Org25543 binding (% of specific binding) at the highest compound concentration,"hGlyT2; compound 2.2 mM, Org25543 10 nM",98±6%
same,Ki,hGlyT2; [4],> 933 µM
same,"affinity / inhibition of Org25543 binding, in words",hGlyT2,no inhibition of Org25543 binding to more than 50%
same,pIC50 (literature; calcd),GlyT2 [2]; ref 22,<3
same,IC50,GlyT2 [2]; ref 22,> 1000 µM
"CN(CCOc1ccc(-c2ccc3c(c2)OCO3)cc1C(C)(C)C)CC(=O)O [LY2365109, N‐[2‐[4‐(1,3‐benzodioxol‐5‐yl)‐2‐(1,1‐dimethylethyl)‐phenoxy]ethyl]‐N‐methylglycine]",remaining Org25543 binding (% of specific binding) at the highest compound concentration,"hGlyT2; compound 10 μM, Org25543 10 nM",94±10%
same,Ki,hGlyT2; [4],> 4.27 µM
same,"affinity / inhibition of Org25543 binding, in words",hGlyT2,hardly any affinity
same,pIC50 (literature; calcd),GlyT2 [2]; ref 57,<4.52
same,IC50,GlyT2 [2]; ref 57,> 30 µM
COC(=O)CN [glycine methyl ester],Ki,hGlyT2; [4],77600 µM
same,Glycine uptake in presence of 1 mM competitor (% of control),GlyT2 [2],"84±5 %^[47],[c]"
"O=C(O)CCCCSc1ncnc2[nH]c(O)nc12 [ZINC6865169, 5‐((8‐hydroxy‐9H‐purin‐6‐yl)thio)pentanoic acid]",IC50,hGlyT2,> 600 µM
same,remaining Org25543 binding (% of specific binding) at the highest compound concentration,hGlyT2; [5],77% and 77±6%
same,Ki,hGlyT2; [4],> 257 µM
same,IC50,"GlyT2 [3]; ref 40, read-out: IC50 in glycine uptake studies",0.518 µM
same,pIC50 (literature; calcd),GlyT2 [2]; ref 40,6.29
same,IC50,GlyT2 [2]; ref 40,0.518 ± 0.066 µM
CN(C)CCCN1c2ccccc2Sc2ccc(Cl)cc21 [chlorpromazine],Ki,hGlyT2; [4],28.2 µM
same,pIC50 (literature; calcd),GlyT2 [2]; ref 58,4.68
same,IC50,GlyT2 [2]; ref 58,21 ± 4 µM
CC(C)CC(N)C(=O)O (racemic) [DL‐leucine],remaining Org25543 binding (% of specific binding) at the highest compound concentration,"hGlyT2; compound 10 mM, Org25543 10 nM",99±3%
same,Ki,hGlyT2; [4],> 4270 µM
same,"affinity / inhibition of Org25543 binding, in words",hGlyT2,no inhibition of Org25543 binding to more than 50%
"CN(CCC(Oc1ccc(C(=O)c2nccs2)cc1)c1ccc(Cl)cc1)CC(=O)O (stereo not drawn) [CP‐802,079, N‐[3‐(4‐chlorophenyl)‐3‐[4‐(2‐thiazolylcarbonyl)phenoxy]propyl]‐N‐methyl‐glycine]",Ki,hGlyT2; [4],22.9 µM
same,pIC50 (literature; calcd),GlyT2 [2]; ref 55,<5
same,IC50,GlyT2 [2]; ref 55,> 10 µM
"CN(CC[C@@H](Oc1ccc(-c2ccccc2)cc1)c1ccc(F)cc1)CC(=O)O [ALX5407, N‐[(3R)‐3‐([1,1′‐biphenyl]‐4‐yloxy)‐3‐(4‐fluorophenyl)propyl]‐N‐methylglycine]",IC50,hGlyT2,> 600 µM
same,remaining Org25543 binding (% of specific binding) at the highest compound concentration,hGlyT2; [5],90±5%
same,Ki,hGlyT2; [4],> 257 µM
same,"affinity / inhibition of Org25543 binding, in words",hGlyT2,hardly a reduction of Org25543 binding
same,pIC50 (literature; calcd),GlyT2 [2]; ref 40,5.74
same,pIC50 (literature; calcd),GlyT2 [2]; ref 54,< 4
same,IC50,GlyT2 [2]; ref 40,1.8 µM
same,IC50,GlyT2 [2]; ref 54,> 100 µM
